{"source": "patent US20120258938A1", "about": "“Enzymatic Production or Chemical Synthesis and Uses for 5,7-Dienes and UVB Conversion Products Thereof” (priority 2008, published 2012)", "key": {"[1]": {"tested_on": "SK Mel 188 human melanoma cells", "assay": "Soft agar colony formation, SKMEL 188 melanoma", "assay_type": "cell-based", "details": "for colony formation in soft agar versus vehicle control: SKMEL 188, 10 nM", "method": "Growth and survival of prostate cancer cells (PC3) and melanoma cells SKMEL 188 and AbC1 was determined by following their ability to form colonies in soft agar. Cells growing in monolayer culture were trypsinized and resuspended (1,000 cells/well) in 0.25 ml medium containing 0.4% agarose and 5% charcoal stripped serum (HyClone).\nCell suspensions were added to 0.8% agar layer in 24 well plates. […] Each condition was tested in quadruplicate. An ethanol solvent control (amount of ethanol equivalent to test) as well as a media-only control was included in the assay. Cells were allowed to grow at 37° with 5% CO2 over two weeks with secosteroids in fresh media (100 μL) being added after every 72 h. Soft agar colonies were scored and stained with 0.5 mg/ml MTT reagent (Promega), 500 μL/well after two weeks. Colonies were then counted under the microscope and number of units was calculated as number of colonies formed divided by the number of cells seeded×100."}, "Human dermal fibroblasts": {"tested_on": "Human dermal fibroblasts", "assay": "TGF-b1 induced collagen protein production by dermal fibroblasts", "assay_type": "cell-based", "details": "collagenase sensitive protein; for Collagen CPM/Well (mean ± SEM) × 10^−5 FB: hrTGF-b1 5 ng/ml, secosteroids at 10^−10M, 3[H]-proline", "method": "Human dermal fibroblasts grown from explant skin cultures at less than 10 subpassages were plated at 5×10^4 cells per well in 24 well Costar tissue culture plates and were grown to confluency. Complete MEM was then changed to serum free Complete MEM without non-essential amino acids. After 24 hours, culture medium was changed (450 μl/well) to the same and secosteroids listed in Table 14 were added in 10 μl absolute alcohol (ETOH) to a final concentration of 10^−9 and M, 3 replicate wells each. Vehicle control wells (n=6) contained 10 μl (ETOH). After 2 hour pre-incubation, hr TGF-b1 (R and D systems) was added to each well except ETOH wells at a final concentration of 5 ng/ml. After 48 hours of culture, plate wells were paused with 1μ Cl ^3[H]-proline. After 24 hours, culture supernatants were harvested and collagenase sensitive protein was determined as previously described (44)."}, "[2]": {"tested_on": "human dermal fibroblast line", "assay": "TGF-b1 induced hyaluronan synthesis by dermal fibroblasts", "assay_type": "cell-based", "details": "hrTGF-b1 5 ng/ml, secosteroids at 10^−10M", "from_the_text": "There were found no significant differences in fibroblast numbers per well and no significant differences in trypan blue exclusion between control wells vs those with secosteroids range 95-100% (data not shown)."}, "HaCaT keratinocytes": {"tested_on": "HaCaT keratinocytes", "assay": "[3H]-thymidine DNA synthesis in HaCaT keratinocytes", "assay_type": "cell-based, human", "details": "HaCaT", "method": "HaCaT keratinocytes were plated in 96-well plates at the density of 10,000 cells/well in DMEM (Cellgro, Herndon Va.) containing 5% charcoal treated fetal bovine serum (Hyclone, Logan, Utah), 1% antibiotic solution (PSA, Sigma, St. Louis, […].). Next day, media were changed and vehicle (ethanol) or secosteroids added. Cells were incubated with compounds for 48 hours. [^3H]-thymidine (Amersham Biosciences, Picataway, N.Y.) was added to the final concentration of 1 μCi/mL medium for last 12 hours of incubation. Media were then discarded, cells detached with trypsin and harvested on a glass fiber filter (Packard, Meriden, Calif.). Radioactivity was measured with a beta counter (Direct Beta-Counter Matrix 9600; Packard).\nTo measure DNA synthesis, keratinocytes, melanoma or prostate cancer cells were plated in 96-well plates. After overnight incubation tested compounds were added to the medium to achieve final concentrations 10^−7-10^−10 [M]. 100 μl of medium per well containing vitamin D3 compound was added to the cells. After 36 hours of incubation [3H]-thymidine (specific activity 88.0 Ci/mmol; Amersham Biosciences, Picataway, N.Y., USA) was added at 1 μCi/mL medium. After 12 hours, media were discarded, cells detached with trypsin and harvested on a glass fiber filter (Packard, Meriden, Calif., USA). 3H-radioactivity was measured with a beta counter (Direct Beta-Counter Matrix 9600; Packard).\nHaCaT keratinocytes were plated out in 24-well plates, 50,000 cells/well. […] After 4 h media were discarded, cells washed with cold phosphate-buffered saline and incubated in 10% trichloroacetic acid for 30 min. Cells were washed again with phosphate-buffered saline, 100 μl 1.0 M NaOH was added to each well and plates incubated for 30 min at 30° C. The supernatant was collected and the ^3H-radioactivity measured by scintillation counting using a Direct Beta-Counter Matrix 9600 (Packard). The [^3H]-thymidine incorporation into DNA was measured separately for each well and the results entered into the calculation as the mean of 6 wells for each condition in a series of six experiments (n=36). Data were analyzed with GraphPad Prizm Version 4.0 (GraphPad Software Inc., San Diego, Calif., USA) using t tests. Differences were considered significant when p<0.05."}, "cytochrome P450scc": {"biological_target": "T1, cytochrome P450scc (Bos taurus, UniProt P00189)", "T1 sequence (P00189 40-520)": "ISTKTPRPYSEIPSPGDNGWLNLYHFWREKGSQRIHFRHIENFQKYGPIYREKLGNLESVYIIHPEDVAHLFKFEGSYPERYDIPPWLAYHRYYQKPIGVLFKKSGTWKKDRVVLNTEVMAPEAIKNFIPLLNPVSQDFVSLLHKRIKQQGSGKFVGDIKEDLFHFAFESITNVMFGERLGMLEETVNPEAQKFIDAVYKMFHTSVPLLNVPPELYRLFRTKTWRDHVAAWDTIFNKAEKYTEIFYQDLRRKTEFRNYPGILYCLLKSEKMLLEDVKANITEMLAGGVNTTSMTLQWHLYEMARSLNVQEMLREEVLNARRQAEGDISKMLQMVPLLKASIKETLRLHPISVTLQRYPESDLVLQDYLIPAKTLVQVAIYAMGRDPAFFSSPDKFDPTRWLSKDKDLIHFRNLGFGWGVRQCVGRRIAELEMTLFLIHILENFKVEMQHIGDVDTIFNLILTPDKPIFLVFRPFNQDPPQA", "assay": "Metabolism by cytochrome P450scc in cyclodextrin", "method": "Adrenodoxin was expressed in Escherichia coli and purified as described before (41). […] Metabolites were analysed using a Perkin Elmer HPLC equipped with a C18 column (Brownlee Aquapore, 22 cm×4.6 mm, particle size 7 μm)."}}}
{"compound": "C=C1C(=CC=C2CCCC3(C)C2CCC3C(C)(O)CCCC(C)(C)O)CC(O)CC1O", "note": "(stereo not shown) [1,20,25(OH)2D3, 1,20,25-trihydroxycholecalciferol]", "values": [{"measurement": "colony formation in soft agar versus vehicle control", "setting": "[1]", "result": "greatly inhibited colony formation"}]}
{"compound": "CC(O)C1(O)CCC2C3=CC=C4CC(O)CCC4(C)C3CCC21C", "note": "(stereo not shown) [17,20(OH)27DHP]", "values": [{"measurement": "TGF-b1 induced collagen protein production", "setting": "Human dermal fibroblasts; [3H]-proline", "result": "inhibited TGF-b1 induced collagen protein production"}]}
{"compound": "1,25 (OH)2 D3", "values": [{"measurement": "Hyaluronan CPM/Well (mean ± SEM) × 10^−5 FB", "setting": "[2]", "result": "297 ± 18", "unit": "CPM/Well × 10^−5 FB"}, {"measurement": "Collagen CPM/Well (mean ± SEM) × 10^−5 FB", "setting": "Human dermal fibroblasts", "result": "310 ± 100", "unit": "CPM/Well × 10^−5 FB"}]}
{"compound": "C=C1CCC(O)CC1=CC=C1CCCC2(C)C1CCC2C(C)(O)CCCC(C)CO", "note": "(stereo not drawn) [20,26(OH)2D3, (5Z,7E)-9,10-secocholesta-5,7,10(19)-triene-3β,20,26-triol]", "values": [{"measurement": "colony formation in soft agar versus vehicle control", "setting": "[1]", "result": "greatly inhibited colony formation"}]}
{"compound": "C=C1CCC(O)CC1=CC=C1CCCC2(C)C1CCC2C(C)(O)CCCC(C)(C)O", "note": "(stereo not drawn) [20,25(OH)2D3, (5Z,7E)-9,10-secocholesta-5,7,10(19)-triene-3β,20,25-triol]", "values": [{"measurement": "colony formation in soft agar versus vehicle control", "setting": "[1]", "result": "greatly inhibited colony formation"}]}
{"compound": "CC(=O)[C@H]1CC[C@H]2C3=CC=C4C[C@@H](O)CC[C@]4(C)[C@H]3CC[C@]12C", "note": "[compound 1, 3β-hydroxypregna-5,7-dien-20-one]", "values": [{"measurement": "Hyaluronan CPM/Well (mean ± SEM) × 10^−5 FB", "setting": "[2]", "result": "230 ± 34", "unit": "CPM/Well × 10^−5 FB"}, {"measurement": "Collagen CPM/Well (mean ± SEM) × 10^−5 FB", "setting": "Human dermal fibroblasts", "result": "292 ± 31", "unit": "CPM/Well × 10^−5 FB"}]}
{"compound": "CC(O)C1(O)CCC2C3=CC=C4CC(O)CCC4(C)C3CCC21C", "note": "(stereo not shown) [17,20 R(OH)27DHP]", "values": [{"measurement": "Hyaluronan CPM/Well (mean ± SEM) × 10^−5 FB", "setting": "[2]", "result": "607 ± 127", "unit": "CPM/Well × 10^−5 FB"}, {"measurement": "Collagen CPM/Well (mean ± SEM) × 10^−5 FB", "setting": "Human dermal fibroblasts", "result": "173 ± 11", "unit": "CPM/Well × 10^−5 FB"}]}
{"compound": "C[C@]12CC[C@H]3C(=CC=C4C[C@@H](O)CC[C@@]43C)[C@@H]1CC[C@@H]2C(=O)O", "note": "[17-COOH, (5Z,7E)-3β-hydroxy-androsta-5,7-diene-17β-carboxylic acid]", "values": [{"measurement": "DNA synthesis", "setting": "HaCaT keratinocytes; 72 hrs, 0.01-100 nM", "result": "DNA synthesis was inhibited at all concentrations"}]}
{"compound": "(5Z,7E)-9,10-secoandrosta-5,7,10(19)-trien-3β-ol [aD3]", "values": [{"measurement": "colony formation on soft agar", "setting": "[1]; SKMEL-188, dose dependent", "result": "suppress colony formation on soft agar"}]}
{"compound": "CC(O)C1(O)CCC2C3=CC=C4CC(O)CCC4(C)C3CCC21C", "note": "(stereo not shown) [17,20 S(OH)27DHP]", "values": [{"measurement": "Hyaluronan CPM/Well (mean ± SEM) × 10^−5 FB", "setting": "[2]", "result": "227 ± 53", "unit": "CPM/Well × 10^−5 FB"}, {"measurement": "Collagen CPM/Well (mean ± SEM) × 10^−5 FB", "setting": "Human dermal fibroblasts", "result": "213 ± 17", "unit": "CPM/Well × 10^−5 FB"}]}
{"compound": "C=C1CCC(O)CC1=CC=C1CCCC2(C)C1CCC2C(C)(O)CCC(O)C(C)C", "note": "(stereo not drawn) [20,24(OH)2D3, (5Z,7E)-9,10-secocholesta-5,7,10(19)-triene-3β,20,24-triol]", "values": [{"measurement": "colony formation in soft agar versus vehicle control", "setting": "[1]", "result": "greatly inhibited colony formation"}]}
{"compound": "C=C1/C(=C\\C=C2/CCC[C@]3(C)[C@@H]([C@H](C)CCCC(C)C)CC[C@@H]23)C[C@@H](O)C[C@@H]1O", "note": "[1α-hydroxycholecalciferol, (5Z,7E)-9,10-secocholesta-5,7,10(19)-triene-1α,3β-diol]", "values": [{"measurement": "Km", "setting": "cytochrome P450scc", "result": "41 ± 6", "unit": "µM"}, {"measurement": "kcat", "setting": "cytochrome P450scc; substrate in 0.45% cyclodextrin", "result": "1.3±0.1", "unit": "mol/min/mol P450scc"}]}
{"compound": "C=C1CCC(O)CC1=CC=C1CCCC2(C)C1CCC2(O)C(C)(O)CC(O)CC(C)C", "note": "(stereo not drawn) [17α,20,23-trihydroxycholecalciferol, (5Z,7E)-9,10-secocholesta-5,7,10(19)-triene-3β,17α,20,23-tetrol]", "values": [{"measurement": "keratinocyte proliferation compared with 1α,25-dihydroxycholecalciferol", "setting": "HaCaT keratinocytes; 48 h", "result": "inhibit keratinocyte proliferation more potently than the control compound"}]}
{"compound": "C=C1C(=CC=C2CCCC3(C)C2CCC3C(C)(O)CCC(O)C(C)C)CC(O)CC1O", "note": "(stereo not drawn) [1,20,24(OH)2D3, (5Z,7E)-9,10-secocholesta-5,7,10(19)-triene-1α,3β,20,24-tetrol]", "values": [{"measurement": "colony formation in soft agar versus vehicle control", "setting": "[1]", "result": "greatly inhibited colony formation"}]}
